Test results reported in patent US20160287540A1, “Increasing Cancer Patient Survival Time by Administration of Dithio-Containing Compounds” (BioNumerik Pharmaceuticals, Inc., priority 2015, published 2016).
“Also recorded” adds a separate entry of the source. Where two headings read alike, the source gives them in different places.

Legend:
[1] = system: coupled thioredoxin (TX)/thioredoxin reductase (TXR)/NADPH system; assay type: biochemical, bovine
Experimental: (§1) Biochemistry 21:6628-6633 (1982).
(§2) Data was then collected and plotted in Microsoft Excel. Error calculations, and graphical representations were performed in Microsoft Excel and Kaleidograph (ver. 3.5). Nonlinear data was graphically rendered using Kaleidograph. ANOVA and other statistical analyses were performed using SAS (ver. 8.2). Unless otherwise noted, significance level was set at 0.05, and error bars represent actual experimental standard deviation.
Table5, below, illustrates that various Formula (I) compounds (i.e., disulfide-containing compounds) of the present invention can serve as alternate substrate inhibitors for the coupled thioredoxin (TX)/thioredoxin reductase (TXR)/NADPH system as measured by the oxidation of NADPH. In Table5, the Formula (I) compounds were utilized at a concentration of 0.5 mM.

[2] = target: T1, glutathione reductase (GR) (Homo sapiens, UniProt P00390); assay: NADPH oxidation by glutathione reductase, without or with GSH; assay type: biochemical
T1 sequence (P00390 44-522): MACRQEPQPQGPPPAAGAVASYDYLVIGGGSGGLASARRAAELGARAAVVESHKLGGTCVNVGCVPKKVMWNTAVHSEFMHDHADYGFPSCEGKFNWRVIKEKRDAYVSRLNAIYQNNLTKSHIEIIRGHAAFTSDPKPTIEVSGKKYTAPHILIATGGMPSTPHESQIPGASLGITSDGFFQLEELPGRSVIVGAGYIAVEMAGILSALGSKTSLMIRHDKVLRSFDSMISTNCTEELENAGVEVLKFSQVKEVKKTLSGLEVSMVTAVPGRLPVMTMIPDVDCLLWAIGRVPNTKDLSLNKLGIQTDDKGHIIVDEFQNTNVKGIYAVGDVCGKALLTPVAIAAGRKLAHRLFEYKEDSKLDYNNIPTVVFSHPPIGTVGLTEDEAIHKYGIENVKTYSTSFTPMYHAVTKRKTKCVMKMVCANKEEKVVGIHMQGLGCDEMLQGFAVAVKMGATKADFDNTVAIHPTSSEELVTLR
Experimental: (§3) Table 4, below, illustrates that various Formula (I) compounds (i.e., dithiol-containing compounds) may act as alternative substrate inhibitors for the coupled GRX/GSH/GR system as measured by NADPH oxidation. The Formula (I) compound was utilized at a concentration of 0.5 mM.

[3] = system: mammalian thioredoxin reductase (TXR); conditions: cited from earlier work
[4] = target: T1, glutathione reductase (GR); conditions: cited from earlier work
[5] = system: patients with advanced, Stage IIIB/IV, non-small cell lung carcinoma (NSCLC), including the adenocarcinoma sub-type; assay: U.S. Phase II NSCLC Clinical Trial (dose-dense docetaxel/cisplatin with or without Tavocept™); assay type: in vivo, human; conditions: Tavocept™ arm vs non-Tavocept™ arm
Excerpt: As utilized herein, the term “clinical trial” or “trial”, refers to: • (i) the Japan Phase III Clinical Trial disclosed in the present invention which was utilized to show the ability of Tavocept™ (also referred to in the literature as disodium 2,2′-dithio-bis-ethane sulfonate, dimesna, or BNP7787) to prevent and/or reduce peripheral neuropathy induced by paclitaxel/cisplatin combination therapy. The incidence and severity of adverse reactions, time to their onset, etc. and the like, were compared between patients treated with Tavocept™ and those given a placebo using Quality of Life (QOL) questionnaires (i.e., Peripheral Neuropathy Questionnaire (PNQ©) and CIPN-20)) and the National Cancer Institute-Common Toxicity Criteria (NCI-CTC). The effects of Tavocept™ on the Quality of Life (QOL) of patients under anticancer treatment were also evaluated using the QOL questionnaire, EORTC QLQ-C30. Whether or not Tavocept™ would affect the efficacy of paclitaxel/cisplatin combination therapy was also evaluated based on the response rate, aggravation-free survival period, and total survival period. […] Whether or not Tavocept™ would affect the efficacy of the dose-dense docetaxel/cisplatin combination therapy was also evaluated based on the response rate, aggravation-free survival period, and total survival period. […]

[6] = target: T2, thioredoxin reductase (TXR) (Bos taurus, UniProt O62768); assay: NADPH oxidation by thioredoxin reductase only; assay type: biochemical; conditions: listed as Tavocept™
T2 sequence (O62768 1-499): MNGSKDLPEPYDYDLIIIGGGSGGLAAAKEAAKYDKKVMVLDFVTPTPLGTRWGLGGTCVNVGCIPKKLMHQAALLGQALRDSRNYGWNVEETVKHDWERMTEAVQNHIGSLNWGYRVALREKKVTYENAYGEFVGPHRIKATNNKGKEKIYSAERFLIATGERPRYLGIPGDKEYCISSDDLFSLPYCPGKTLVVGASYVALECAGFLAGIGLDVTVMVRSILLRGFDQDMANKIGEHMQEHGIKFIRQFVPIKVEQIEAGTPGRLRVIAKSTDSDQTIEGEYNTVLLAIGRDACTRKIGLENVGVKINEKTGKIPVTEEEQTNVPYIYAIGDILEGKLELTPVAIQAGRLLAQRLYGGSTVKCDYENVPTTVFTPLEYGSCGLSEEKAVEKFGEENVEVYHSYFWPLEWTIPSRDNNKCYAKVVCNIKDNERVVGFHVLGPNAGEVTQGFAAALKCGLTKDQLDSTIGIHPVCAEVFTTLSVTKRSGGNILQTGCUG
Experimental: as §1, §2

[7] = target: T3, coupled glutaredoxin (GRX)/glutathione (GSH)/glutathione reductase (GR) system (Homo sapiens, UniProt P35754); assay: NADPH oxidation by coupled GRX/GSH/GR system; assay type: biochemical; conditions: in the presence of reduced glutathione and glutathione reductase
T3 sequence (P35754 1-106): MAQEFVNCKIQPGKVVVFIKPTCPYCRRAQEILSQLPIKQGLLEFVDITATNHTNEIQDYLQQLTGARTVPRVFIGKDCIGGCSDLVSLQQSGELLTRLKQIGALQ
Experimental: as §3

brain cancer cells = assay: Cytotoxicity in brain cancer cells; assay type: cell-based, human; conditions: oxaliplatin and mesna; observable but not statistically significant
[8] = system: ovarian cancer cell lines; assay: Cytotoxicity in ovarian cancer cell lines; assay type: cell-based, human; conditions: mesna (100 μM) in combination with oxaliplatin vs oxaliplatin alone controls
[9] = system: non-small cell lung carcinoma (NSCLC) cell lines; assay: Cytotoxicity in NSCLC cell lines; assay type: cell-based, human
[10] = system: whole cells (reduction of TX/TXR and GRX substrates); assay: Whole cell mediated disulfide reduction; assay type: cell-based; conditions: mesna in combination with cisplatin

SMILES | inhibition of TXR (in words) ([3]; literature studies) | inhibition of GR (in words) ([4]; literature studies) | other results
N[C@@H](CCC(=O)N[C@@H](CSSCCS(=O)(=O)O)C(=O)NCC(=O)O)C(=O)O [BNP7772] |  |  | substrate activity / NADPH oxidation by TXR in the presence of TX (in words) [1]: substrates; substrate activity for glutathione reductase (in words) [2]: functions as an alternative substrate inhibitor
NC(CCSSCCS(=O)(=O)O)C(=O)O (stereo not drawn) [BNP7768] |  |  | substrate activity / NADPH oxidation by TXR in the presence of TX (in words) [1]: substrates
NC(CSSCCS(=O)(=O)O)C(=O)O (stereo not drawn) [BNP7766] |  |  | substrate activity / NADPH oxidation by TXR in the presence of TX (in words) [1]: substrates
N.N.[Cl][Pt+2][Cl] [transplatin] | irreversibly inhibited TXR | not GR | 
O=C1[O][Pt]2([NH][C@@H]3CCCC[C@H]3[NH]2)[O]C1=O [oxaliplatin] |  |  | inhibition of TXR (in words) [3]: irreversibly inhibited TXR; inhibition of GR (in words) [4]: not GR
N.N.O=C([O-])C1(C(=O)[O-])CCC1.[Pt+2] [carboplatin] | could not inhibit either TXR or GR | could not inhibit either TXR or GR | 
O=S(=O)([O-])CCSSCCS(=O)(=O)[O-].[Na+].[Na+] [BNP7787, disodium 2,2′-dithio-bis-ethane sulfonate] |  |  | increase in patient (median) survival, adenocarcinoma ([5]; listed as Tavocept): ~6.5 month; increase in patient (median) survival, adenocarcinoma ([5]; listed as Tavocept™): 6.54 month; NADPH oxidation / substrate activity with thioredoxin reductase alone, absence of TX (in words) [6]: indistinguishable from background; also recorded: not thioredoxin reductase alone; activity with glutaredoxin (in words) [7]: substrate-like activity; substrate activity for glutathione reductase (in words) [2]: not a substrate for glutathione reductase
O=S(=O)(O)CCS [mesna, sodium-2-mercaptoethane sulfonate] |  |  | oxaliplatin cytotoxicity (brain cancer cells): lesser increase in oxaliplatin cytotoxicity; cytotoxic effect of oxaliplatin [8]: markedly enhanced the cytotoxic effect; cytotoxic effect of oxaliplatin ([9]; mesna (100 μM) in combination with oxaliplatin vs oxaliplatin alone controls, NSCLC): markedly enhanced the cytotoxic effect; cytotoxic effect of paclitaxel ([9]; mesna (100 μM) in combination with paclitaxel vs paclitaxel alone controls): enhanced the cytotoxic effect; reduction of α-lipoic acid (TX/TXR substrate) or hydroxyethyldisulfide (GRX substrate) by whole cells [10]: enhanced the reduction
CS(=O)(=O)OCCCCOS(C)(=O)=O [busulfan] | irreversibly inhibited TXR in a concentration- and time-dependent manner | not GR | 
O=NN(CCCl)C(=O)NCCCl [carmustine] | can inhibit both GR and TXR | can inhibit both GR and TXR | 
O=C(O)CCCc1ccc(N(CCCl)CCCl)cc1 [chlorambucil] | irreversibly inhibited TXR in a concentration- and time-dependent manner | not GR | 
O=P1(N(CCCl)CCCl)NCCCO1 (stereo not drawn) [cyclophosphamide] | irreversibly inhibited TXR in a concentration- and time-dependent manner | not GR | 
N.N.O.[Cl][Pt+] [monohydrated complex] | irreversibly inhibited TXR | not GR | 
N.N.[Cl][Pt][Cl] [cisplatin, cis-diamminedichloroplatinum] | irreversibly inhibited TXR | not GR | 
O=P1(NCCCl)OCCCN1CCCl (stereo not drawn) [ifosfamide] | inhibited TXR |  | 
N[C@@H](Cc1ccc(N(CCCl)CCCl)cc1)C(=O)O [melphalan] | irreversibly inhibited TXR in a concentration- and time-dependent manner | not GR | 
N[C@@H](CSSCCS(=O)(=O)O)C(=O)NCC(=O)O [BNP7776] |  |  | substrate activity / NADPH oxidation by TXR in the presence of TX (in words) [1]: substrates
